Our source for the IC50 values is PubChem BioAssay AID1645864 (Buhrlage Lab, Dana-Farber Cancer Institute and Novartis …, 2021).

Structures are written as SMILES. Active and inactive are the calls of the source.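 The calls were made as follows: active = maximal inhibition of USP17 at or above 30% in the confirmation dose-response, a value not among the printed readouts; inactive = the rest.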

Ubiquitin carboxyl-terminal hydrolase 17-like protein 5 (Homo sapiens), sequence (A8MUK1 whole entry, looked up): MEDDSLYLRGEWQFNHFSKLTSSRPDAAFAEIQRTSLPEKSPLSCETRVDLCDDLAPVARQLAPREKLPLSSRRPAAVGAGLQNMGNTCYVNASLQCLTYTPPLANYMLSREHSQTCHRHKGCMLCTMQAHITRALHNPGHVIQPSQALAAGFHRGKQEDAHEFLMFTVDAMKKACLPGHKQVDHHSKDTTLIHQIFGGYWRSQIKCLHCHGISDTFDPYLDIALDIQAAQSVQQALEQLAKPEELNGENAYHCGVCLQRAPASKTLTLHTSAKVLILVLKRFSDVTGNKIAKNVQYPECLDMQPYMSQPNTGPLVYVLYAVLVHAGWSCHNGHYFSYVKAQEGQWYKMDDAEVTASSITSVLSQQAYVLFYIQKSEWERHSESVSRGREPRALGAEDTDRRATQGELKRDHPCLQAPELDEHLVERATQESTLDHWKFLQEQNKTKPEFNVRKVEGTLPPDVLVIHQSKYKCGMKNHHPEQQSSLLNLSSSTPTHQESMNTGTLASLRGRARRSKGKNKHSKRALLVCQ

The assay has as its target Ubiquitin carboxyl-terminal hydrolase 17-like protein 5 (Homo sapiens) (UniProt A8MUK1). The assay is described as follows: ubiquitin-specific protease 17 DUB inhibitors, concentration-effect assay, cell-free, verification of initial screening actives (AID 1645864). Conditions: purified USP17, ubiquitin-rhodamine cleavage fluorescence, 3 h.
Regarding `COc1ccc(CN(C(=O)c2cc(-c3ccc(C)cc3)on2)C2CCS(=O)(=O)C2)cc1` (configuration not stated), the IC50 – broadly, the point on the concentration scale where inhibition reaches its midpoint – was 17.3 µM. Consider `CSc1ccccc1NC(=O)c1ccc(-n2cccn2)nn1`, for which the IC50 was 4.43 µM.

Consider `CC(=O)Nc1ccc(-n2cnc(C(=O)NCc3ccc(C)cc3)c2)nc1`, for which the IC50 is 27.1 µM. Consider `CC(c1ccccc1)n1c(-c2ccc(F)cc2)nc2c(c(=O)c3ccccc3n2C)c1=O` (configuration not stated), for which the IC50 was 2.85 µM. Take `COc1ccc2nc3c(cc2c1)c(=O)n(C)c1c3c(=O)n(-c2ccccc2)c(=O)n1-c1ccccc1`: the IC50 is > 50 µM (inactive).

As for `O=C(Cn1c(=O)n(Cc2ccc(F)cc2)c(=O)c2sccc21)Nc1cccc(Cl)c1`, the IC50 was 7.77 µM. The value for `CCc1ccc(OCc2nnc(SCC(=O)Nc3ccccc3OC)n2Cc2ccccc2)cc1` was > 50 µM (inactive); that for `CN(CCc1ccccc1)c1nccc(N2CCN(C(=O)c3csc(-c4cccnc4)n3)CC2)n1` was > 50 µM (inactive). As to `O=C1N(Cc2ccc(F)cc2)CCN1c1ccc(C(F)(F)F)cn1`, the IC50 was > 50 µM (inactive).

As for `O=C(Cn1cc(C(=O)C2CC2)c2ccccc21)NCc1ccc2c(c1)OCO2`, the IC50 is 29.1 µM. `O=C(NCc1nc(-c2ccc3c(c2)[nH]c(=O)n3C2CCCC2)no1)c1ccccc1`: the IC50 was > 5 µM (inactive). Under `O=C1CC(c2cc3c(cc2Br)OCO3)c2cc3c(cc2N1)OCCO3` (configuration not stated) stands 19.6 µM. In the case of `CN(C)C(=O)CSc1nnc(-c2cccc(Cl)c2)n1-c1ccc(Cl)c(C(F)(F)F)c1`, the IC50 is 2.81 µM. In the case of `O=C(COC(=O)c1n[nH]c2ccccc12)Nc1ccc(N2CCCCC2)cc1`, the IC50 is 25.9 µM.

As to `O=C(CC1C(=O)Nc2nc(-c3ccccc3)nn21)Nc1cccc2ccccc12` (configuration not stated), the IC50 was 12.2 µM. Take `Cc1ccc(-c2nc(Cn3nnc(-c4nc(-c5ccccn5)no4)c3C)c(C)o2)cc1`: the IC50 is > 50 µM (inactive). Turning to `Cc1cccc(C(=O)N2CCc3cc(-c4nc(NC(=O)CN5CCc6ccccc6C5)sc4C)ccc32)c1`, the IC50 is > 50 µM (inactive). Consider `O=C(Cn1nc2ccc(C(=O)NCc3ccccc3)cn2c1=O)Nc1ccc2c(c1)OCO2`, for which the IC50 was 45.1 µM. Consider `COc1ccc(OCCn2c(C3CC(=O)N(c4cccc(C)c4)C3)nc3ccccc32)cc1` (configuration not stated), for which the IC50 is 0.391 µM. Turning to `COc1cc(OC)cc(-n2c(=O)c3sccc3n(CC(=O)Nc3ccc(C)cc3)c2=O)c1`, the IC50 was 10.1 µM.

For `COc1ccc(CN2CCCC23CCCN(C(=O)CCc2cccnc2)C3)cc1F` (configuration not stated), the IC50 is 33.6 µM. Under `O=C(Cc1cccc2ccccc12)Nc1nc2ccc(F)cc2s1` stands > 50 µM (inactive). Under `COc1ccc(Cl)cc1N1C(=O)[C@H]2[C@@H](C1=O)[C@]1(C(=O)Nc3c(C)cc(C)cc31)N1CCC[C@@H]21` stands > 50 µM (inactive); under `COCCNC(=O)c1ccc(-c2ccc(N3CCCCC3)nc2)cc1`, 26.8 µM. On to `O=C(CSc1nc2ccccc2n1S(=O)(=O)c1ccc(Br)cc1)Nc1ccc([N+](=O)[O-])cc1Cl`, for which the IC50 is > 50 µM (inactive). As to `CC1Oc2cc3c(-c4c(O)cc(O)c5c(O)c6c(cc45)OC(C)C(C)C6=O)c(O)cc(O)c3c(O)c2C(=O)C1C` (configuration not stated), the IC50 was 1.25 µM. Under `CCC(C)c1ccc(O[C@@H]2O[C@@H]3COC(c4ccccc4)O[C@H]3[C@H](O)[C@H]2NC(C)=O)cc1` (some centres not stated) stands 16.6 µM.

Regarding `CC1CCc2c(sc3ncnc(OCc4cccc([N+](=O)[O-])c4)c23)C1` (configuration not stated), the IC50 is > 50 µM (inactive). With `CCn1cc2c(n1)c(=O)n(Cc1ccccc1)c(=O)n2CC(=O)Nc1ccc(OC)cc1`, the IC50 is 2.91 µM. Take `CC(=O)c1ccc(NC(=O)CC2C(=O)Nc3nc4ccccc4n32)cc1` (configuration not stated): the half-inhibitory concentration (IC50) was 32.5 µM. In the case of `O=C(NCC(c1cccnc1)N1CCc2ccccc2C1)C(=O)Nc1ccc2c(c1)OCO2` (configuration not stated), the IC50 is 30.5 µM.

As for `CN(C(=O)c1ccncc1)[C@H]1CC[C@@]2(C)C[C@H](c3ccccc3)C[C@](C)(O2)[C@@H]1O`, the IC50 is > 50 µM (inactive).

Regarding `O=C(CSc1nc2cc(C(F)(F)F)ccc2s1)NCC(=O)c1ccccc1`, the IC50 is 1.86 µM. The value for `CC(C)N1CC2CN(Cc3ccc(Cl)cc3)CCN2Cc2ccccc21` (configuration not stated) was > 50 µM (inactive); that for `CCS(=O)(=O)c1ccccc1C(=O)Nc1ccc2sc(C)nc2c1` was > 50 µM (inactive). Under `O=C(CNC(=O)OCc1ccccc1)Nc1ccc(Br)cc1C(=O)c1ccccc1Cl` stands 9.66 µM. The value for `O=C(CSc1ncnc2c1oc1ccccc12)NC1CCCC1` was 26 µM; that for `O=C(CN1CCCc2ccccc21)Nc1ccc(N2CCOCC2)cc1` was > 50 µM (inactive); that for `CC(=O)c1ccc(NC(=O)/C(=C/c2ccco2)n2nnnc2-c2ccccc2)cc1` was > 50 µM (inactive). Consider `CC(Nc1ncnc2c1sc1nc(N3CCOCC3)c3c(c12)CCC3)c1ccccc1` (configuration not stated), for which the IC50 is 5.33 µM. As to `COc1cccc(/C=C/c2nc(C#N)c(N3CCN(C(=O)c4cccs4)CC3)o2)c1`, the IC50 was > 50 µM (inactive). As to `COc1ccc(S(=O)(=O)N(C)Cc2cccs2)cc1OC`, the IC50 is > 50 µM (inactive). Consider `Cc1cc(-c2nnc(SCC(=O)Nc3ccc(Br)c(C)c3)n2N)n[nH]1`, for which the IC50 was 18.7 µM. As for `Cc1ccccc1Cc1nc(-c2ccc(=O)[nH]c2)no1`, the IC50 is > 50 µM (inactive).

In the case of `Cc1cc(C)cc(-n2cnc3cc(C(=O)NCCC4=CCCCC4)ccc32)c1`, the IC50 was > 50 µM (inactive).

With `Fc1ccc(Cc2nc(-c3ccc4nncn4c3)no2)cc1`, the IC50 is > 50 µM (inactive). `CC(C)=CCC/C(C)=C/Cc1c(O)cc2c(c1O)C(=O)OC2`: the IC50 is 1.7 µM. The value for `COC(=O)c1sc2ccccc2c1NC(=O)c1ccc(Br)s1` was 20.6 µM; that for `Cc1ccc(NC(=O)c2c3c(nc4ccccc24)CCCCC3)c(C)c1` was > 50 µM (inactive). On to `O=C(Cn1nnc(-c2ccc(F)cc2)n1)NCCc1ccccc1`, for which the IC50 was 33.7 µM. Consider `O=C(CCCCn1c(=O)c2ccccc2n(CC(=O)Nc2ccc(F)c(Cl)c2)c1=O)NCc1ccco1`, for which the IC50 is > 50 µM (inactive). Consider `Cc1ccc(Cn2nnc(-c3noc(-c4ccc[nH]4)n3)c2C)cc1`, for which the IC50 was > 50 µM (inactive). As for `CCc1c(C)c(C#N)c2nc3ccccc3n2c1N1CCN(C2CCCC2)CC1`, the IC50 was 3.06 µM. With `Fc1ccc(CN2CCc3nc4cccnc4cc3C2)cc1`, the IC50 is > 50 µM (inactive). Consider `Cc1nn(-c2ccc(Cl)cc2)c2[nH]c(=O)c(CNCC3CCCO3)cc12` (configuration not stated), for which the IC50 is > 50 µM (inactive). Consider `COc1cc(=O)c(C(=O)Nc2ccc(C#N)cc2)nn1-c1cccc(F)c1`, for which the IC50 is 28.8 µM. As to `COc1ccc(/C=C/C(=O)Nc2cccc(S(=O)(=O)Nc3ccccc3Cl)c2)c(OC)c1`, the IC50 was 9.3 µM.

Consider `COCC(=O)Nc1cc(F)c2nc(N3CCOCC3)ccc2c1`, for which the IC50 is 33.8 µM. Consider `CCCCNC(=O)c1cc2cccnc2n(Cc2ccccc2)c1=O`, for which the IC50 is > 50 µM (inactive). For the molecule `CCOc1ccc(C2=NCCNC3=C2C(c2ccccc2)N(c2ccccc2)C3=O)cc1` (configuration not stated), the IC50 is > 50 µM (inactive). As to `CC(=O)N1CCCC(c2nc(C)cc(-c3cc(F)ccc3C(=O)O)n2)C1` (configuration not stated), the IC50 was > 50 µM (inactive). The value for `CC1CS(=O)(=O)N(c2ccc(C(=O)Nc3ccc4c(c3)OCCO4)cc2)C1=O` (configuration not stated) was 35.6 µM; that for `O=C(CSc1nnc(-c2ccncc2)n1Cc1ccccc1)c1ccc2[nH]c(O)cc2c1` was 4.12 µM. As to `CC1=C(c2ccc(Cl)cc2)S(=O)(=O)NC1=NCC(=O)Nc1ccc(F)cc1`, the IC50 is 20.3 µM. Take `O=C(C1CCCN(S(=O)(=O)N2CCCCCC2)C1)N1CCN(c2ccccc2)CC1` (configuration not stated): the IC50 was > 50 µM (inactive). Regarding `CCOc1ccc(C(=O)Cn2c(=O)n(CC3CCCO3)c(=O)c3cc(OC)c(OC)cc32)cc1Cl` (configuration not stated), the IC50 is 17.7 µM. Turning to `CCn1c(=O)c(=O)[nH]c2cc(C(=O)Nc3cccc(-c4csc(C)n4)c3)ccc21`, the IC50 was 26.9 µM.

With `Cc1ccc(Cl)cc1NC(=O)COC(=O)c1ccc2ccccc2n1`, the IC50 is > 50 µM (inactive). For the molecule `Cc1c(OCC(=O)Nc2nc3ccccc3[nH]2)ccc2c3c(c(=O)oc12)CCC3`, the IC50 is 0.339 µM. The value for `Cc1ccc2[nH]c(=O)c(CN(Cc3cccnc3)C(=O)c3cccc(Cl)c3)cc2c1` was > 50 µM (inactive).

`Cc1ccc2c(c1C)NC(=O)[C@]21[C@@H]2C(=O)N(c3cccc(Cl)c3)C(=O)[C@@H]2[C@@H]2CCCN21`: the IC50 is > 50 µM (inactive).

Consider `Cc1ccc(Cn2c(=O)c3ccccc3n3c(CCC(=O)N4CCN(c5ccccn5)CC4)nnc23)cc1`, for which the IC50 is 11.8 µM.

`CC(C)N1CC2CN(C(=O)c3ccccc3)CCN2Cc2ccccc21` (configuration not stated): the IC50 was > 50 µM (inactive). Take `CCOC(=O)c1c(C)oc2nc(CSc3ccccc3)[nH]c(=O)c12`: the IC50 is > 50 µM (inactive). As to `O=C(NCc1ccccc1)Nc1cccc2ccccc12`, the IC50 was 34 µM. As to `COc1ccc(NS(=O)(=O)c2cc(NC(=O)CCc3nc4ccccc4s3)ccc2C)cc1`, the IC50 was 28.1 µM. Under `O=C(Nc1ccc2ccccc2n1)c1ccc(Cl)cc1` stands 2.19 µM. As for `Fc1cccc(Cn2cc(-c3noc(-c4cccnc4)n3)nn2)c1`, the IC50 was 38.3 µM.

`CCc1ccc(-n2nc(C)c3c2NC(=O)CC3C(=O)c2ccc3c(c2)OCCO3)cc1` (configuration not stated): the IC50 is 27.5 µM. Under `O=C1CC(C(=O)Nc2ccccc2Cl)n2nc(-c3ccccc3)cc2N1` (configuration not stated) stands 28.7 µM. The value for `O=C1c2ccccc2-n2c1nc1ccccc1c2=O` was 4.91 µM; that for `O=C(Cn1cc(C(=O)C(F)(F)F)c2ccccc21)N1CCc2ccccc21` was 3.5 µM. Under `CN(C(=O)c1cccc2cccnc12)c1nc2c(s1)CCc1occc1-2` stands 24.9 µM; under `O=C(OCc1ccc(F)cc1)c1ccc2ccccc2n1`, > 50 µM (inactive); under `CCCCc1nc2sc3c(SCC(=O)Nc4cccc(C)c4)ncnc3c2c2c1CCC2`, 14 µM. As to `COc1ccc(NC(=O)C2[C@@H]3C(=O)N(C4CCCCC4)C(=O)[C@@H]3[C@H]3c4ccccc4C=CN23)cc1` (some centres not stated), the IC50 is 46.9 µM.

Take `Cc1cccc(CNC(=O)C2CCCN(S(=O)(=O)Cc3ccc(F)cc3)C2)c1` (configuration not stated): the IC50 is 19.1 µM.
